# Laboratory results: patent publication US9498479B2, “Dihydropyrimidine compounds and their application in pharmaceuticals” (SUNSHINE LAKE PHARMA CO., LTD., priority 2013, dated 2016)
# pEC50: −log10 of the molar value. Where two headings read alike, the source gives them in different places.
# What was measured:
# HBV = test: In-vitro anti-HBV activity in stable HBV-producing cell line (HepG2.2.15), HBV DNA in culture fluid by qPCR; format: cell-based; conditions: Hepatitis B virus, 168 h; HepG2.2.15 cells, HBV DNA in culture media on day 7, qPCR
# Experimental: Specific procedures are as follows:
# HepG2.2.15 cells were seeded into each well of 96-well plates, 40,000 cells per well. Cells were treated with cell culture medium containing compounds with different concentrations 24 hours after cell seeding. The final concentration of each compound was 16.4 μM in each well and each compound was diluted to desired concentration using 3-fold gradient dilution protocol, 9 diluted points in duplicate. The culture mediums containing the compounds were refreshed on day 4 post cell seeding. Culture media were collected from the HepG2.2.15 plates on day 7 post cell seeding followed by HBV DNA extraction.
# HBV DNA extraction: The HBV DNA extraction was performed using QIAamp 96 DNA Blood Kit (QIAGEN 51161).
# PCR for quantification: PCR mix was prepared according to PCR system. PCR mix was dispensed to 96-well optical reaction plates (special for quantification). The standard diluted proportionally was added. Then the sample was added; The plates were sealed with optical adhesive film; PCR system was performed according to programs.
# Percentage of HBV inhibition of DNA replication by compound was calculated using the following equation: % Inh.=[1-HBV DNA quantity of sample/HBV DNA quantity of DMSO control]*100.
# Calculating EC50 value of compounds to HBV replication: the EC50 values were calculated based on “four-parameter logistic equation” and using GraphPad Prism 5 analysis software.
# [1] = Test compounds' PK assay in ICR mice; format: in vivo; conditions: for AUC(0-t): AUC in 0-24 hours; for AUC(0-inf): AUC in 0 hour to infinite time; for Vd: read-out: Vss
# Experimental: The test compounds were poured into ICR mice stomach through mouth with 10 mg/kg or 5 mg/kg, or administered 2 mg/kg to ICR mice by tail-intravenous injection. Blood sample of orbital vein was taken at 0.083, 0.25, 0.5, 1, 2, 4, 6, 8 and 24 hours after administration, and collected in anticoagulation tube added with EDTA-K2. The test compounds were extracted from plasma samples and chromatographed on a tandem mass spectrometer. Quantitation was performed using multiple reaction monitoring (MRM). Pharmacokinetic parameters were calculated using WinNonlin 6.3 software with non compartment model.
# [2] = ICR mice, po 5 mg/kg vs iv 2 mg/kg, calculated by the AUClast
# [3] = mouse, plasma, ICR mice, iv, 2 mg/kg
# [4] = mouse, plasma, ICR mice, iv, 2 mg/kg, read-out: Cmax
# [5] = mouse, plasma, ICR mice, iv, 2 mg/kg, read-out: Tmax
# [6] = mouse, plasma, ICR mice, po, 5 mg/kg
# [7] = mouse, plasma, ICR mice, po, 5 mg/kg, read-out: Cmax
# [8] = mouse, plasma, ICR mice, po, 5 mg/kg, read-out: Tmax
smiles,measurement,setting,value
"CCOC(=O)C1=C(CN2CC(F)(F)C[C@H]2CCC(=O)O)NC(c2nccs2)=N[C@H]1c1ccc(F)cc1Cl [Example 12, 3-((R)-1-(((R)-6-(2-chloro-4-fluorophenyl)-5-(ethoxycarbonyl)-2-(thiazol-2-yl)-3,6-dihydropyrimidin-4-yl)methyl)-4,4-difluoropyrrolidin-2-yl)propanoic acid]",pEC50,HBV,7.01
"CCOC(=O)C1=C(CN2CC(F)(F)C[C@H]2CCC(=O)O)NC(c2nccn2C)=NC1c1ccc(F)cc1Br (stereo partly drawn) [Example 7, 3-((2R)-1-((6-(2-bromo-4-fluorophenyl)-5-(ethoxycarbonyl)-2-(1-methyl-1H-imidazol-2-yl)-3,6-dihydropyrimidin-4-yl)methyl)-4,4-difluoropyrrolidin-2-yl)propanoic acid]",pEC50,HBV,7.19
"COC(=O)C1=C(CN2CC(F)(F)C[C@H]2CCC(=O)O)NC(c2nccs2)=N[C@H]1c1ccc(Cl)cc1Cl [Example 16, 3-((R)-1-(((R)-6-(2,4-dichlorophenyl)-5-(methoxycarbonyl)-2-(thiazol-2-yl)-3,6-dihydropyrimidin-4-yl)methyl)-4,4-difluoropyrrolidin-2-yl)propanoic acid]",pEC50,HBV,7.21
"CCOC(=O)C1=C(CN2CC(F)(F)C[C@H]2CCC(=O)O)NC(c2nccs2)=N[C@H]1c1ccc(F)cc1Br [Example 6, 3-((R)-1-(((R)-6-(2-bromo-4-fluorophenyl)-5-(ethoxycarbonyl)-2-(thiazol-2-yl)-3,6-dihydropyrimidin-4-yl)methyl)-4,4-difluoropyrrolidin-2-yl)propanoic acid]",F,[1]; [2],59.3%
same,absorption after intragastric administration (in words),"[1]; ICR mice, po, 5 mg/kg",rapidly absorbed
same,clearance,[1]; [3],10.2 mL/min/kg
same,half-life,[1]; [3],46.2 min
same,AUC(0-t),[1]; [3],3270 ng·h/mL
same,AUC(0-inf),[1]; [3],3270 ng·h/mL
same,Cmax,[1]; [4],6560 ng/mL
same,Tmax,[1]; [5],4.8 min
same,Vd,[1]; [3],0.38 L/kg
same,half-life,[1]; [6],188 min
same,AUC(0-t),[1]; [6],4840 ng·h/mL
same,AUC(0-inf),[1]; [6],4850 ng·h/mL
same,Cmax,[1]; [7],5410 ng/mL
same,Tmax,[1]; [8],15 min
"COC(=O)C1=C(CN2CC(F)(F)C[C@H]2CCC(=O)O)NC(c2nccs2)=N[C@H]1c1ccc(F)cc1Br [Example 14, 3-((R)-1-(((R)-6-(2-bromo-4-fluorophenyl)-5-(methoxycarbonyl)-2-(thiazol-2-yl)-3,6-dihydropyrimidin-4-yl)methyl)-4,4-difluoropyrrolidin-2-yl)propanoic acid]",pEC50,HBV,7.10
"CCOC(=O)C1=C(CN2CC(F)(F)C[C@H]2CCC(=O)O)NC(c2nccs2)=N[C@H]1c1ccc(Cl)cc1Cl [Example 13, 3-((R)-1-(((R)-6-(2,4-dichlorophenyl)-5-(ethoxycarbonyl)-2-(thiazol-2-yl)-3,6-dihydropyrimidin-4-yl)methyl)-4,4-difluoropyrrolidin-2-yl)propanoic acid]",pEC50,HBV,7.19
"CCOC(=O)C1=C(CN2CC(F)(F)C[C@@H]2CCC(=O)O)NC(c2nccs2)=N[C@H]1c1ccc(Cl)cc1Cl [Example 21, 3-((S)-1-(((R)-6-(2,4-dichlorophenyl)-5-(ethoxycarbonyl)-2-(thiazol-2-yl)-3,6-dihydropyrimidin-4-yl)methyl)-4,4-difluoropyrrolidin-2-yl)propanoic acid]",pEC50,HBV,8.05
"CCOC(=O)C1=C(CN2CC(F)(F)C[C@@H]2CCC(=O)O)NC(c2nccs2)=N[C@H]1c1ccc(F)cc1Cl [Example 19, 3-((S)-1-(((R)-6-(2-chloro-4-fluorophenyl)-5-(ethoxycarbonyl)-2-(thiazol-2-yl)-3,6-dihydropyrimidin-4-yl)methyl)-4,4-difluoropyrrolidin-2-yl)propanoic acid]",pEC50,HBV,7.70
"COC(=O)C1=C(CN2CC(F)(F)C[C@@H]2CCC(=O)O)NC(c2nccs2)=N[C@H]1c1ccc(F)cc1Cl [Example 20, 3-((S)-1-(((R)-6-(2-chloro-4-fluorophenyl)-5-(methoxycarbonyl)-2-(thiazol-2-yl)-3,6-dihydropyrimidin-4-yl)methyl)-4,4-difluoropyrrolidin-2-yl)propanoic acid]",pEC50,HBV,7.77
"CCOC(=O)C1=C(CN2CC(F)(F)C[C@H]2C(C)CC(=O)O)NC(c2nccs2)=N[C@H]1c1ccc(F)cc1Br (stereo partly drawn) [Example 9, 3-((S)-1-(((R)-6-(2-bromo-4-fluorophenyl)-5-(ethoxycarbonyl)-2-(thiazol-2-yl)-3,6-dihydropyrimidin-4-yl)methyl)-4,4-difluoropyrrolidin-2-yl)butanoic acid]",F,[1]; [2],60.2%
same,absorption after intragastric administration (in words),"[1]; ICR mice, po, 5 mg/kg",rapidly absorbed
same,clearance,[1]; [3],10.3 mL/min/kg
same,half-life,[1]; [3],82.2 min
same,AUC(0-t),[1]; [3],3230 ng·h/mL
same,AUC(0-inf),[1]; [3],3240 ng·h/mL
same,Cmax,[1]; [4],6270 ng/mL
same,Tmax,[1]; [5],4.8 min
same,Vd,[1]; [3],0.33 L/kg
same,half-life,[1]; [6],63.6 min
same,AUC(0-t),[1]; [6],4860 ng·h/mL
same,AUC(0-inf),[1]; [6],4870 ng·h/mL
same,Cmax,[1]; [7],5460 ng/mL
same,Tmax,[1]; [8],15 min
"CCOC(=O)C1=C(CN2CC(F)(F)C[C@H]2CC(C)C(=O)O)NC(c2nccs2)=N[C@H]1c1ccc(F)cc1Br (stereo partly drawn) [Example 8, 3-((R)-1-(((R)-6-(2-bromo-4-fluorophenyl)-5-(ethoxycarbonyl)-2-(thiazol-2-yl)-3,6-dihydropyrimidin-4-yl)methyl)-4,4-difluoropyrrolidin-2-yl)-2-methylpropanoic acid]",F,[1]; [2],69.3%
same,absorption after intragastric administration (in words),"[1]; ICR mice, po, 5 mg/kg",rapidly absorbed
same,clearance,[1]; [3],11.5 mL/min/kg
same,half-life,[1]; [3],81 min
same,AUC(0-t),[1]; [3],2860 ng·h/mL
same,AUC(0-inf),[1]; [3],2870 ng·h/mL
same,Cmax,[1]; [4],5790 ng/mL
same,Tmax,[1]; [5],4.8 min
same,Vd,[1]; [3],0.39 L/kg
same,half-life,[1]; [6],63 min
same,AUC(0-t),[1]; [6],4960 ng·h/mL
same,AUC(0-inf),[1]; [6],4970 ng·h/mL
same,Cmax,[1]; [7],4820 ng/mL
same,Tmax,[1]; [8],15 min
"CCOC(=O)C1=C(CN2CCOCC2)NC(c2nccs2)=NC1c1ccc(F)cc1Br (centres unmarked) [R, Ethyl4-(2-bromo-4-fluorophenyl)-2-(thiazol-2-yl)-6-((4-morpholino)methyl)-1,4-dihydropyrimidine-5-carboxylate, reference compound]",F,"[1]; mouse, in vivo",7.75%
same,AUCINF,"[1]; mouse, in vivo, iv, 2 mg/kg",381.2 ng·h/mL
same,AUClast,"[1]; mouse, in vivo, iv, 2 mg/kg",379.13 ng·h/mL
same,CL,"[1]; mouse, in vivo, iv, 2 mg/kg",87.5 mL/min/kg
same,Cmax,"[1]; mouse, in vivo, iv, 2 mg/kg",654.37 ng/mL
same,Tmax,"[1]; mouse, in vivo, iv, 2 mg/kg",4.98 min
same,Vss,"[1]; mouse, in vivo, iv, 2 mg/kg",7.91 L/kg
same,t1/2,"[1]; mouse, in vivo, iv, 2 mg/kg",172 min
same,AUCINF,"[1]; mouse, in vivo, po, 10 mg/kg",147.71 ng·h/mL
same,AUClast,"[1]; mouse, in vivo, po, 10 mg/kg",145.05 ng·h/mL
same,Cmax,"[1]; mouse, in vivo, po, 10 mg/kg",78.2 ng/mL
same,Tmax,"[1]; mouse, in vivo, po, 10 mg/kg",15 min
same,t1/2,"[1]; mouse, in vivo, po, 10 mg/kg",221 min
"COC(=O)C1=C(CN2CC(F)(F)C[C@@H]2CCC(=O)O)NC(c2nccs2)=N[C@H]1c1ccc(Cl)cc1Cl [Example 22, 3-((S)-1-(((R)-6-(2,4-dichlorophenyl)-5-(methoxycarbonyl)-2-(thiazol-2-yl)-3,6-dihydropyrimidin-4-yl)methyl)-4,4-difluoropyrrolidin-2-yl)propanoic acid]",pEC50,HBV,7.96
"CCOC(=O)C1=C(CN2CCS(=O)(=O)C[C@H]2C(=O)O)NC(c2nccs2)=N[C@H]1c1ccc(F)cc1Br [Example 2, (R)-4-(((R)-6-(2-bromo-4-fluorophenyl)-5-(ethoxycarbonyl)-2-(thiazol-2-yl)-3,6-dihydropyrimidin-4-yl)methyl)thiomorpholine-3-carboxylic acid 1,1-dioxide]",pEC50,HBV,5.18
"COC(=O)C1=C(CN2CC(F)(F)C[C@@H]2CCC(=O)O)NC(c2nccs2)=N[C@H]1c1ccc(F)cc1Br [Example 18, 3-((S)-1-(((R)-6-(2-bromo-4-fluorophenyl)-5-(methoxycarbonyl)-2-(thiazol-2-yl)-3,6-dihydropyrimidin-4-yl)methyl)-4,4-difluoropyrrolidin-2-yl)propanoic acid]",pEC50,HBV,7.85
"CCOC(=O)C1=C(CN2CC(F)C(C)(C)C2CCC(=O)O)NC(c2nccs2)=N[C@H]1c1ccc(F)cc1Br (stereo partly drawn) [Example 39, 3-(1-(((R)-6-(2-bromo-4-fluorophenyl)-5-(ethoxycarbonyl)-2-(thiazol-2-yl)-3,6-dihydropyrimidin-4-yl)methyl)-4-fluoro-3,3-dimethylpyrrolidin-2-yl)propanoic acid]",F,[1]; [2],86.1%
same,absorption after intragastric administration (in words),"[1]; ICR mice, po, 5 mg/kg",rapidly absorbed
same,clearance,[1]; [3],5.67 mL/min/kg
same,half-life,[1]; [3],193 min
same,AUC(0-t),[1]; [3],5800 ng·h/mL
same,AUC(0-inf),[1]; [3],5810 ng·h/mL
same,Cmax,[1]; [4],4260 ng/mL
same,Tmax,[1]; [5],4.8 min
same,Vd,[1]; [3],0.73 L/kg
same,half-life,[1]; [6],133 min
same,AUC(0-t),[1]; [6],12500 ng·h/mL
same,AUC(0-inf),[1]; [6],12500 ng·h/mL
same,Cmax,[1]; [7],4900 ng/mL
same,Tmax,[1]; [8],30 min
